{"source": "patent US20220049015A1", "about": "“COMPOSITIONS AND METHODS FOR THE TREATMENT AND/OR PREVENTION OF HER2+ CANCERS” (DUKE UNIVERSITY, priority 2018, published 2022)", "test_system": "MM3MG-HER2Δ16 cells", "assay": "In vitro ADCP and ADCC by bone marrow derived macrophages (BMDM)", "format": "cell-based, mouse", "conditions": "Concanamycin A 1 μM in BMDM co-culture", "description": "MM3MG-HER2Δ16 cells were labeled with Brilliant Violet 450 Dye, and co-cultured with BMDM (3:1 ratio) with control or anti-HER2 antibodies (10 μg/mL). ADCP rates were measured by percentage of BMDM uptake of labeled tumor cells (CD45+and BV450+), and Antibody-dependent-cellular-cytotoxicity (ADCC) rates were measured by percentage of dying free tumor cells (CD45− and LIVE/DEAD stain+). […] All data represent mean ±SEM, **P<0.01, ***P<0.001, ****P<0.0001.\nADCP and ADCC by macrophages—Bone marrow derived macrophages (BMDM) were generated from mouse tibia, differentiated for 10 days with 50 ng/mL mouse MCSF (Peprotech 315-02). Briefly, 50 million bone marrow cells were plated in 10 cm^2 tissue culture dish with MCSF on day 0. Unattached cells in supernatant were removed and fresh media+MC SF were added on day 3, day 6 and day 9. BMDM were used for ADCP/ADCC assays on day 10. Tumor cells MM3MG-HER2416 were labeled with Brilliant Violet 450 Dye (BD 562158) according to manufacturer's protocol, and incubated with control or anti-HER2 antibodies (10 μg/mL) in 96-wells (100,000 cells/well) for 30 minutes at 37° C. BMDM were then added for co-culture at a 3:1 ratio of Tumor vs BMDM. After 2 hours co-culture, phagocytosis of BV450-labeled tumor cells by BMDM were analyzed by FACS with CD45-APC staining and Live-death (Red) staining. […]"}
{"smiles": "C/C=C/[C@H]1O[C@@](O)([C@@H](C)[C@H](O)[C@H](C)[C@H]2OC(=O)/C(OC)=C/C(C)=C/[C@@H](C)[C@@H](O)[C@@H](CC)[C@@H](O)[C@H](C)C/C(C)=C/C=C/[C@@H]2OC)C[C@@H](O[C@H]2C[C@@H](O)[C@H](OC(N)=O)[C@@H](C)O2)[C@@H]1C", "note": "[Concanamycin A]", "values": [{"measurement": "effect of ADCC inhibitor on HER2 mAb activities", "value": "had no effect on HER2 mAb activities"}]}
